The data set can be described thus: in vitro. The following applies: human, hela cells, % viability.

Turning to `C=CCN1C(=O)C2(CC(=O)N(CCOc3ccccc3)C2=O)c2ccccc21` (centres unmarked) [CBK075159], the viability at 28.5 h, 10 µM stood at 101%.
The figure for `CN1CCCc2ccc(S(=O)(=O)Nc3ccc4nncn4c3)cc21` [CBK306435] is 98.6%; for `Fc1ccc(-c2cncc(NCCc3cccnc3)n2)cc1Cl` [CBK065745] it is 91.3%; for `Cc1ccc(N(Cc2ccco2)C(=O)c2cccc(S(=O)(=O)N(C)C)c2)cc1` [CBK267578] it is 91.6%.
The same measure for `O=C(Oc1cccc2cccnc12)c1ccc(Br)o1` [CBK019461]: 89.4%; for `O=C(Cc1ccc(Cl)c(Cl)c1)N1CCN(C(=O)c2ccco2)CC1` [CBK144454]: 95.2%; for `O=C(Cn1cnc2ccccc2c1=O)Nc1cccc(-c2cnc3ccccc3n2)c1` [CBK270020]: 83.7%.
For `O=C(c1ccc(Nc2ccnc3cc(C(F)(F)F)ccc23)cc1)N1CCC(O)(c2cccc(C(F)(F)F)c2)CC1` [CBK012467], the viability at 28.5 h, 10 µM came out at 91.6%.
The same measure for `NC(=O)c1ccc(NC(=O)N2CCc3ccccc3C2)cc1` [CBK155299]: 80.9%; for `CCCc1ccc(S(=O)(=O)Nc2ccc(C(=O)N(CC)CC)cc2)cc1` [CBK034403]: 92.3%.
For the compound `Cc1ccccc1NC(=O)N1CCC2(CC1)NCCc1c2[nH]c2ccc(O)cc12` [CBK046904], the viability at 28.5 h, 10 µM was found to be 91%.
In the case of `Cc1ncccc1C(=O)NC(c1ccc(F)c(F)c1)c1nccn1C` (centres unmarked) [CBK283809], the viability at 28.5 h, 10 µM was 90.8%.
The figure for `Cc1ccc(C(NC(=O)Cn2ccnc2)c2ccncc2)cc1C` (centres unmarked) [CBK281591] is 87.4%.
The same measure for `CCN(CC)CCNc1ncnc(N)c1[N+](=O)[O-]` [CBK267287]: 82.8%; for `CCC(=O)NCc1csc(-c2ccccc2)n1` [CBK092344]: 90.1%.
As for `CCN1CCN(C(=O)CN(C)S(=O)(=O)c2ccc(OC)c(Cl)c2)CC1` [CBK268091], the viability at 28.5 h, 10 µM came out at 93.2%.
The figure for `C[C@@H]1C[C@H](C)CN(C(C(=O)O)c2c[nH]c3ccccc23)C1` (some centres unmarked) [CBK286868] is 94.3%; for `N#Cc1nc(=O)[nH]cc1N` [CBK021411] it is 90.8%; for `Cc1nn(C)cc1-c1cncn1C(C)Cc1c(C)nn(C)c1C` (centres unmarked) [CBK281786] it is 115%.
In the case of `CC1(C)CC(=O)C(=CNCCCn2ccnc2)C(=O)C1` [CBK261686], the viability at 28.5 h, 10 µM stood at 91.3%.
The figure for `Cc1nc(C2CCCN(C(=O)CCc3ccno3)C2)c2sccn12` (centres unmarked) [CBK285237] is 87.5%; for `COc1cc(C(N)C(=O)O)ccc1OCc1ccccc1` (centres unmarked) [CBK286909] it is 82.6%.
The same measure for `c1ccc(N2CCN(c3nc(-c4ccoc4)cn4ccnc34)CC2)nc1` [CBK066522]: 99.7%.
Regarding `CCOc1ccc(Oc2ccc(C(F)(F)F)cc2NC(=O)CCCC(=O)O)cc1` [CBK296993], the viability at 28.5 h, 10 µM worked out at 90.7%.
`Cc1cc(-c2cn3cc(C(=O)N4CCCC4C)nc3c(=O)n2C)c(C)o1` (centres unmarked) [CBK307038]: the viability at 28.5 h, 10 µM stood at 84.8%.
On to `NS(=O)(=O)c1ccc(NC(=S)Nc2nn(Cc3ccc(Cl)c(Cl)c3)cc2Br)cc1` [CBK267082], for which the viability at 28.5 h, 10 µM came out at 94.4%.
The figure for `Fc1cccc(C2NC(S)=NC3=C2N2CCC3CC2)c1` (centres unmarked) [CBK288503] is 88.2%.
Consider `Cc1ccc(OCC(O)CN2CCN(c3ccccn3)CC2)cc1C` (centres unmarked) [CBK058884], for which the viability at 28.5 h, 10 µM was 86.9%.
The figure for `O=[N+]([O-])c1ccc(CN2CCN(Cc3cc(Br)ccc3O)CC2)cc1` [CBK263652G] is 88.9%.
The same measure for `O=c1c(-c2ccco2)[n+]([O-])c2ccccc2n1OCc1ccccn1` [CBK266570]: 91.8%; for `COc1ccc(S(=O)(=O)N(C)CC(=O)Nc2ccc(S(N)(=O)=O)cc2)cc1C` [CBK267333]: 93.7%; for `CCc1ccc2nc3c(cc2c1)CNCCO3` [CBK281940]: 91.6%.
The same measure for `C#CCOc1ccc(/C=N/N=C(\N)c2nonc2N)cc1OC` [CBK264765]: 109%; for `CN(C)c1ccc(-n2ccn(S(=O)(=O)c3ccc(Oc4ccccc4)cc3)c2=O)cc1` [CBK106608]: 89.3%; for `CSc1nsc(SCC(=O)Nc2ccccc2C#N)n1` [CBK269826]: 95.1%.
With `Cn1nccc1C(=O)N1CCCC(c2cc3cccnc3[nH]2)C1` (centres unmarked) [CBK284929], the viability at 28.5 h, 10 µM was determined as 92.7%.
For `O=C(c1ccc(NCCCCO)nc1)N1CCC(N2CCOCC2)CC1` [CBK306521], the viability at 28.5 h, 10 µM stood at 96%.
Take `Cc1ccc(-c2nnc(CNC(=O)c3cccc(Cl)c3)o2)s1` [CBK284646]: the viability at 28.5 h, 10 µM was 79.1%.
Take `CC1(C(=O)Nc2cnn(Cc3ccc(F)cc3)c2)CCCO1` (centres unmarked) [CBK282585]: the viability at 28.5 h, 10 µM is 104%.
The figure for `O=C(Nc1cc(Cl)cc(Cl)c1)c1csnn1` [CBK057759] is 88.1%.
`O=C(c1ccco1)N1CCN(c2ccc(-c3ccc(F)c(Cl)c3)cn2)CC1` [CBK037683]: the viability at 28.5 h, 10 µM turned out to be 93.9%.
On to `CCN1C(=O)CC2(C1=O)C(=O)N(CCc1cccs1)c1ccccc12` (centres unmarked) [CBK075521], for which the viability at 28.5 h, 10 µM was found to be 91.4%.
As for `S=C(NCC1CCCCC1)Nc1ncc(Cl)cc1Cl` [CBK067053], the viability at 28.5 h, 10 µM is 91%.
The figure for `O=C(O)C(CCCN1CCCC1)(c1ccccc1)c1ccccc1` [CBK022695G] is 81.7%.
The figure for `CCOc1cc(C(=S)N2CCOCC2)ccc1OCc1ccccc1` [CBK027466] is 99.1%; for `CCCNc1cncc(-c2cccc(CO)c2)n1` [CBK065433] it is 95.7%; for `CN1CCN(C2CC(=O)N(c3ccc(Oc4ccccc4)cc3)C2=O)CC1` (centres unmarked) [CBK265434] it is 103%.
The same measure for `Cc1cc(C(=O)N2CCN(Cc3ccc4c(c3)OCO4)CC2)nn1C` [CBK074832]: 111%; for `CN1CCN(CC(=O)Nc2ccc(Cl)cc2C(=O)c2ccccc2)CC1` [CBK266246]: 91.8%; for `O=C(O)/C=C/c1cccc(-c2cncc(NCCc3ccncc3)n2)c1` [CBK065358]: 99.5%.
Regarding `Cc1ccc(/C=C/C(=O)O)cc1S(=O)(=O)NCC1CCCO1` (centres unmarked) [CBK287267], the viability at 28.5 h, 10 µM turned out to be 82.5%.
Regarding `Cc1n[nH]c(C)c1CCC(=O)N/N=C/c1ccccn1` [CBK262887], the viability at 28.5 h, 10 µM came to 92.9%.
Turning to `O=C(NC1CC1)[C@H]1O[C@H](CCN2CCN(c3ccccc3)CC2)CC[C@@H]1O` [CBK288717], the viability at 28.5 h, 10 µM turned out to be 96.8%.
As to `CC(C)CN1CCC(NC(=O)c2csc(-c3cnn(C)c3)n2)CC1` [CBK305790], the viability at 28.5 h, 10 µM came to 97.2%.
With `COc1ccc(OC)c(CN2CCN(CCCc3ccccc3)CC2)c1` [CBK264304], the viability at 28.5 h, 10 µM stood at 100%.
The same measure for `O=C(NCCOc1ccccc1)c1nccnc1-c1ccc(COc2ccc3c(c2)CCCC3)cc1` [CBK050852]: 91.2%.
Turning to `CCNC(=O)O[C@@H]1CO[C@H]2[C@@H]1OC[C@@H]2NC(=O)Nc1ccc(C(C)=O)cc1` [CBK289473], the viability at 28.5 h, 10 µM was 93.5%.
The figure for `COc1ccc(-c2nc(NC(=O)COc3ccc(C)c4c3CCC4)cnc2-c2ccc(F)cc2)cc1` [CBK036990] is 88.7%; for `c1csc(-c2nccnc2OC2CCCCC2)c1` [CBK107060] it is 90.2%.
The same measure for `CCC(=O)N1CCCc2cc(C(O)CN3CCCCC3)ccc21` (centres unmarked) [CBK282130]: 81.6%; for `Cc1cccc(CC(=O)N2CCCC2c2n[nH]cc2-c2ccncc2)c1` (centres unmarked) [CBK283447]: 90.7%.
The same measure for `Cc1c(C(=O)O)sc2nc(C=Cc3ccc(OCCC(C)C)cc3)[nH]c(=O)c12` [CBK297539]: 94%; for `Oc1cccc(OCCOc2nccc(C(F)(F)F)n2)c1` [CBK115903]: 92.7%; for `CC(CNC1CCCC1)C(O)(c1ccccc1)c1ccccc1` (centres unmarked) [CBK012237C]: 101%.
As for `CN1CCC(N2CCN(C(=O)NCC(c3ccccc3)c3ccccc3)CC2)CC1` [CBK156096], the viability at 28.5 h, 10 µM amounted to 92.5%.
As to `COc1ccc(CCc2nc(C(F)(F)F)cc(=O)[nH]2)cc1` [CBK003679], the viability at 28.5 h, 10 µM was determined as 87.3%.
The figure for `O=c1c(N2CCNCC2)nccn1CCOc1cccc(Cl)c1Cl` [CBK013463] is 92.2%; for `CCc1[nH]c(=O)c(C(=O)N2CCc3[nH]c4c(C)cccc4c3C2)cc1C` [CBK281586] it is 97.6%; for `Cn1c(=O)c2c(ncn2CC(=O)Nc2ccc(OCc3ccccc3)cc2)n(C)c1=O` [CBK130478] it is 89.8%.
The same measure for `O=C1S/C(=C/c2ccc(Cl)cc2)C(=O)N1c1ccc(F)cc1` [CBK113265]: 102%.
With `CC(C)(C)c1cc(CN2CCN(c3ccccn3)CC2)cc(C(C)(C)C)c1O` [CBK261520], the viability at 28.5 h, 10 µM is 117%.
The same measure for `Cc1cc(N2CCCC(C(=O)N3CCOCC3)C2)nc(N)n1` (centres unmarked) [CBK305985]: 76.4%; for `FC(F)(F)c1cccc(SCCc2ccccn2)n1` [CBK103719]: 97.3%.
For `Cn1c(=O)c2c(ncn2CCOc2cnc(-c3cnn(Cc4ccccc4)c3)c(N)n2)n(C)c1=O` [CBK145193], the viability at 28.5 h, 10 µM came out at 97.4%.
The figure for `Cc1ccc(COc2cc(C(=O)NCc3ccccn3)c3ccccc3n2)cc1` [CBK294403] is 112%; for `Nc1cccc(-c2nc(-c3cccnc3)cnc2N)c1` [CBK063906] it is 95.3%.
Regarding `CCOC(=O)CN1CCC(Oc2nccnc2OCc2ccc(Cl)c(Cl)c2)CC1` [CBK083113T], the viability at 28.5 h, 10 µM worked out at 96.7%.
The figure for `O=C(O)c1ccc(Nc2ncnc3c2cnn3Cc2ccccc2)cc1` [CBK263803] is 92.1%; for `CC1Cc2ccccc2N1C(=O)Cn1c(=O)n(C)c2ncccc21` (centres unmarked) [CBK283793] it is 90.7%; for `CN(C)C(=O)c1ccc(-c2cnc(N)c(-c3ccc(O)cc3)n2)cc1` [CBK116686] it is 91.7%.

The record behind these values is PMC12040169 (PLOS Biology, 2025).
